Measured values reported in patent publication US8623405B2, “Finely divided composition containing poorly water soluble substance” (Takeda Pharmaceutical Company Limited, priority 2005, dated 2014).

Key:
Assay type in all cases: physicochemical
[1] = Degree of crystallinity of composition after pulverization (powder X-ray diffraction, Vonk method); conditions: after pulverization (freeze-dried pulverized suspension of Example 1)
Method: A powder obtained by freeze-drying the pulverized suspension obtained in Example 1 was enclosed in a quartz glass capillary and measured using a powder X-ray diffraction measurement apparatus (Rigaku Corporation, ultraX TTR2-300), Cu rotating target, parallel beam method (50 kV, 300 mA), scanning angle 3-120 degrees, scan step 0.02 degree/counting time 0.6 sec. The degree of crystallinity was calculated from the obtained X-ray diffraction profile using the Vonk method.
The X-ray diffraction profiles were obtained by measurements using the above-mentioned measurement apparatuses and conditions.

[2] = Particle size measurement of pulverized suspensions (laser diffraction/scattering LA-920); conditions: after pulverization (Example 1, ball mill with Kollidon 17PF and sodium lauryl sulfate)
Excerpt: The dispersion medium used for the measurement is usually water, but an aqueous solution of a substance other than the poorly water soluble substance contained in the composition and the like (for some purposes, buffer solutions at various pH levels, mimicked body fluid, 0.5% methylcellulose aqueous solution and the like) can also be used.
“90% frequency particle diameter” is a particle diameter corresponding to the 90% frequency of the above-described integral distribution curve and, in the present invention, means the particle diameter of 90% frequency (90% frequency particle diameter) of the composition dispersed in a liquid, as measured using a laser diffraction/scattering particle size distribution analyzer (LA-920, Horiba Ltd.).
As a dispersion medium, purified water was used.

[3] = Degree of crystallinity of composition after pulverization (powder X-ray diffraction, Vonk method); conditions: before pulverization
[4] = Particle size measurement of pulverized suspensions (laser diffraction/scattering LA-920)
[5] = after pulverization (Example 1, ball mill with Kollidon 17PF and sodium lauryl sulfate)
[6] = before pulverization, substances used in Example 1

Row | SMILES | degree of crystallinity [1] [%] | turbulent factor [1] | D90 [2] [μm] | degree of crystallinity [3] [%] | turbulent factor [3] | particle size: D50 [4, 5] [μm] | particle size: D50 [4, 6] [μm]
1 | FC(F)(F)c1ccc(/C=C/c2nc(COc3ccc(CCCCn4ccnn4)cc3)co2)cc1 [compound A, 1-(4-{4-[(2-{(E)-2-[4-(trifluoromethyl)phenyl]ethenyl}-1,3-oxazol-4-yl)methoxy]phenyl}butyl)-1H-1,2,3-triazole] | 61.3 | 1.412 | 0.68 | 74.7 | −0.163 | 0.42 | 5.68
2 | CCC1=C(C)CN(C(=O)NCCc2ccc(S(=O)(=O)NC(=O)N[C@H]3CC[C@H](C)CC3)cc2)C1=O [glimepiride] | 68.7 | 2.249 | 0.55 | 73.7 | 0.622 | 0.39 | 1.67
3 | COC1=CC(=O)C[C@@H](C)[C@]12Oc1c(Cl)c(OC)cc(OC)c1C2=O [griseofluvin, 7-chloro-2′,4,6-trimethoxy-6′-methylspiro[benzofuran-2(3H),1′-[2]cyclohexene]-3,4′-dione] | – | – | 0.50 | – | – | 0.35 | 6.35
4 | COc1ccc2c(c1)c(CC(=O)O)c(C)n2C(=O)c1ccc(Cl)cc1 [indomethacin] | 89.8 | 0.793 | 0.50 | 99.9 | −0.001 | 0.36 | 9.61
5 | CC(C(=O)O)c1cccc(C(=O)c2ccccc2)c1 (stereo not shown) [ketoprofen, Ketoprofen] | – | – | 0.77 | – | – | 0.50 | –
6 | COc1cc(NS(=O)(=O)c2ccc(N)cc2)nc(OC)n1 [sulfadimethoxine] | – | – | 0.65 | – | – | 0.44 | –
